Test results taken from patent publication US20240294531A1, “COVALENT HETEROCYCLES AND USES THEREOF” (Kumquat Biosciences Inc., priority 2022, published 2024).

Key:
[1] = Intrinsic reactivity assay; assay type: physicochemical; conditions: pH 7.4, 37° C., suitably protected Cys-OMe
Description: Understanding of the intrinsic reactivity of electrophilic warheads with nucleophilic molecules is an important parameter influencing the stability of a compound in biological matrices. Lower intrinsic reactivity also mitigates the risk of covalent off-target reactivity. A common target residue for covalent drugs is cysteine, an amino acid containing a nucleophilic thiol side chain. The assay described here measures the rate of a compound forming a covalent bond with Boc-protected cysteine methyl ester or cysteine methyl ester that can be used as a surrogate for cysteines found on proteins.
Test compounds are prepared as 10 mM stock solutions in DMSO (Fisher cat #BP231-100). Compounds with molecular weight differing more than 3 Dalton are pooled and diluted to 5 μM in 100 mM potassium phosphate buffer, pH 7.4, containing 50 mM Boc-protected cysteine methyl ester (Combi-Blocks cat #QH-3424). Compounds incubated without Boc-protected cysteine methyl ester serve as controls. The reactions are incubated at 37° C., and reaction aliquots at different time intervals are sampled from the reaction and quenched with formic acid for subsequent LC-MS/MS analysis.
The LC-MS/MS analysis is done using a LC-40D×3 pump and SIL-40C×3 autosampler (Shimadzu) coupled to a QTRAP 6500+ (Sciex). Compounds are separated on a XBridge Premier BEH column (Waters). The sample run time is about 4 minutes per injection. The normalized peak area for each compound is extracted from the mass spectrometry raw files, and the data for each compound are plotted against time in Prism version 9.4 (GraphPad). Nonlinear regression using one-phase decay is used to estimate the rate of covalent bond formation with Boc-protected cysteine methyl ester or cysteine methyl ester and parent compound half-life (t½).

[2] = target: T1, BTK wildtype protein (Homo sapiens (Human), UniProt Q06187); assay: Kinact/KI determination for BTK protein inhibitors (Kobs); assay type: binding
Protocol: Test compounds were prepared as 10 mM stock solutions in DMSO (Fisher cat #BP231-100). Human recombinant BTK wildtype protein 393-659 or BTK C481S protein 393-659 was produced in house or purchased from Saromics Biostructures AB (Lund, Sweden). BTK protein was diluted to 1 μM in buffer (20 mM Hepes, pH 7.5, 150 mM NaCl, 1 mM MgCl2, 1 mM DTT). For testing BTK modification, compounds were diluted to 50× final test concentration in DMSO in 96-well storage plates. 1 μL of the diluted 50× compounds were added to appropriate wells in the PCR plate (Fisher cat #AB-0800). Increasing concentrations of compounds were added to separate wells, resulting in final assay compound concentrations of 3 μM, 10 μM, 30 μM and 100 μM. 49 μL of the stock protein solution was added to each well of the 96-well PCR plate. Reactions were mixed carefully. The plate was sealed well with aluminum plate seal and stored in a drawer at room temperature. After different incubation times, the reactions were quenched by adding 5 μL of 2% formic acid (Fisher cat #A117-50) in MilliQ H2O to each well followed by mixing with a pipette. The plate was then resealed with aluminum seal and stored until mass spectrometry analysis.
The extent of covalent modification of BTK proteins was determined by liquid chromatography electrospray mass spectrometry analysis of the intact proteins using a Thermo Q-Exactive Plus mass spectrometer. 20 μL of sample was injected onto a bioZen 3.6 μm Intact C4 column (Phenomenex cat #00B-4767-AN) placed in a column oven set to 40° C. and separated using a LC gradient from 20% to 60% solvent B. Solvent A was 0.1% formic acid and solvent B was 0.1% formic acid in acetonitrile. HESI source settings were set to 40, 5 and 1 for the sheath, auxiliary and sweep gas flow, respectively. The spray voltage was 4 kV, and the capillary temperature was 320° C. S-lens RF level was 50 and auxiliary gas heater temperature was set to 200° C. The mass spectrometry was acquired using a scan range from 650 to 1750 m/z using positive polarity at a mass resolution of 70,000, AGC target of 1e6 ions and maximum injection time of 250 ms. The recorded protein mass spectrum was deconvoluted from the raw data file using Protein Deconvolution v4.0 (Thermo). The protein mass, adduct masses and their corresponding peak intensities were exported to Excel (Microsoft). The peak intensities for the unmodified and modified protein were used to calculate the percent covalent modification of the BTK protein based on the following equation: % BTK protein modification=((BTK−compound)/(BTK)+(BTK−Compound))*100.
The Kinact/KI is a rate constant describing the efficiency of covalent bond formation resulting from the potency (KI) of the first reversible binding event and the maximum potential rate (Kinact) of inactivation. The percent […] protein modification was plotted as a function of time using Prism version 9.4.1 (GraphPad), and the observed rate of modification (Kobs), a first-order rate constant with units of inverse time, was estimated using nonlinear regression at each compound concentration. […] If Kobs is increasing with compound concentration, KI is higher than 3 μM. Kinact/KI can be estimated by plotting Kobs values against each compound concentration used in separate reactions. The Kobs values are fitted to determine Kinact and KI using the following equation, Kobs=(Kinact×[compound conc])/(KI+[compound conc]).
Target sequence in this assay (Q06187 393-659): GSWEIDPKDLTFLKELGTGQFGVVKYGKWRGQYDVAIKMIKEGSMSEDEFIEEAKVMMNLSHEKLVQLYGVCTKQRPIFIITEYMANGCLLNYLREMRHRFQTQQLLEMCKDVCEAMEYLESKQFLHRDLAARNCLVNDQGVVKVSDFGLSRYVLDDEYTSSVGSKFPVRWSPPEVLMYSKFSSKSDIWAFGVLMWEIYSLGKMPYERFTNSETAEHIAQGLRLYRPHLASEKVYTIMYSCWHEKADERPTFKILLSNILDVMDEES

[3] = target: T1, BTK wildtype protein; assay: BTK wildtype HTRF displacement assay; assay type: binding; conditions: 1-hour incubation; read-out: BTK (wt) IC50
How it was run: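 Full-length N-terminal GST-tagged BTK incubated 1 h at room temperature with compound (6 doses, four-fold dilutions from 5 μM top) plus kinase tracer 239 and anti-GST-Tb antibody. Tracer displacement read as TR-FRET 665/620 ratio, background-subtracted using no-protein control. IC50 from four-parameter fit constrained 0–100% inhibition.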
Target sequence in this assay (Q06187 2-659): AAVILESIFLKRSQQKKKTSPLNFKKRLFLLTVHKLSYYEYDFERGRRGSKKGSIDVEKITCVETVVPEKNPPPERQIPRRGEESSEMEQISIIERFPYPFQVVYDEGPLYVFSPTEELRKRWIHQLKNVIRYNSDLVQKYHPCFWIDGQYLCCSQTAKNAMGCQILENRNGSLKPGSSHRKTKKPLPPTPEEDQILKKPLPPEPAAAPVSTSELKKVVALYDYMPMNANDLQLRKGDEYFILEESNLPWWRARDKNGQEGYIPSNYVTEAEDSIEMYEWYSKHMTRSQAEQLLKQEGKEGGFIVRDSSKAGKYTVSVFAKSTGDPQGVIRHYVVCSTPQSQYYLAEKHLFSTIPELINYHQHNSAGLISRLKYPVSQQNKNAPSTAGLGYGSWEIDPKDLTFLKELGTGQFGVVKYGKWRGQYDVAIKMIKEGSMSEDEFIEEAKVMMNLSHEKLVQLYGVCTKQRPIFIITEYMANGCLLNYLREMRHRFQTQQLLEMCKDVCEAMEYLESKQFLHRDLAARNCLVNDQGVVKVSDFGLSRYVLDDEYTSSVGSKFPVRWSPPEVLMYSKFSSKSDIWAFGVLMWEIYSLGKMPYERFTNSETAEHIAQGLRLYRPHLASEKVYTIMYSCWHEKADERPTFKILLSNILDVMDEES

[4] = target: BTK C481S protein (Homo sapiens (Human), UniProt Q06187, C481S); assay: BTK C481S HTRF displacement assay; assay type: binding; conditions: 1-hour incubation
How it was run: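 N-terminal GST-tagged BTK C481S (2-659) incubated 1 hour at room temperature with compound (6 doses, four-fold from 5 μM), 50 nM kinase tracer 239 and anti-GST-Tb antibody. TR-FRET 665/620 ratio, background-subtracted; IC50 from constrained four-parameter fit. KI=IC50/(1+[Tracer]/Kd), tracer Kd 54 nM.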

[5] = target: MGLL (Homo sapiens (Human), UniProt Q99685, K36A/L169S/L176S); assay: MGLL compound modification assay (intact protein LC-MS); assay type: binding; conditions: at 4 hours; compound concentration of 3 μM
Protocol: Test compounds were prepared as 10 mM stock solutions in DMSO (Fisher cat #BP231-100). Human recombinant MGLL protein 1-303 containing K36A, L169S, L176S amino acid substitutions were produced at in house. On the day of the assay, MGLL protein was diluted to 2 μM in assay buffer (20 mM Hepes, pH 7.5, 150 mM NaCl, 1 mM MgCl2, 1 mM DTT). For testing MGLL modification, compounds were diluted to 50× final test concentration in DMSO in 96-well storage plates. […] of the diluted 50× compounds were added to appropriate wells in the PCR plate (Fisher cat #AB-0800). 49 μL of the stock protein solution was added to each well of the 96-well PCR plate to form a mixture. The plate was sealed well with aluminum plate seal and stored in a drawer at room temperature. […]
The extent of covalent modification of MGLL proteins was determined by liquid chromatography electrospray mass spectrometry analysis of the intact proteins using a Thermo Q-Exactive Plus mass spectrometer. […] The recorded protein mass spectrum was deconvoluted from the raw data file using Protein Deconvolution v4.0 (Thermo). […]
Certain compounds disclosed herein are expected to covalently modify MGLL protein when assessed using the assay described above by at least 1%, such as by at least 5%, 10%, 20%, 30%, 40%, or at least 50%.

BTK C481S protein, sequence (Q06187 2-659 C481S): as the sequence (Q06187 2-659) above, with C480S counted along it
MGLL, sequence (Q99685 whole entry K36A/L169S/L176S): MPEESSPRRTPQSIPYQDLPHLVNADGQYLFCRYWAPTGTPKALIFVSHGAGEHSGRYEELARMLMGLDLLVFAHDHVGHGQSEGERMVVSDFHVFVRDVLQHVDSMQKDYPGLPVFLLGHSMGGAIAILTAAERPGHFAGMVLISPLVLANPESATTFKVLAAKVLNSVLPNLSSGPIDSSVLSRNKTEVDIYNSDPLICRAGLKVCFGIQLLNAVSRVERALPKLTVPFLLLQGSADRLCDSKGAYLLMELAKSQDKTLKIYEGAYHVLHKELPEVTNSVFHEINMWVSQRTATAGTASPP

Row | IC50 [3] [µM] | IC50 [4] [µM] | % MGLL protein modification [5] | Structure (SMILES) | K (min^−1), intrinsic rate constant [1] [min⁻¹] | BTK (wt) Kobs [2]
1 |  |  |  | C=CC(=O)N(CC)C1CC1 | 0.0159 | 
2 |  |  |  | C=CC(=O)N1CCCCC1C (stereo not drawn) | 0.0029 | 
3 |  |  |  | C=CC(=O)N(CC)CC | 0.0012 | 
4 | > 1 | ≤ 1 |  | NC(=O)c1c(-c2ccc(Oc3ccccc3)cc2)nn2c1NCCC2C1CCN1C(=O)n1cncn1 (stereo not drawn) [Compound 137, 7-(1-(1H-1,2,4-triazole-1-carbonyl)azetidin-2-yl)-2-(4-phenoxyphenyl)-4,5,6,7-tetrahydropyrazolo[1,5-a] pyrimidine-3-carboxamide] |  | 132, 134, 136, 137, 138, 140, 150, 152, 153, 154, 155, M^−1 · s^−1
5 | ≤ 1 | ≤ 1 |  | COc1ccc(F)cc1C(=O)NCc1ccc(-c2nn(C(C)C(C)N(C)C(=O)n3cncn3)c3ncnc(N)c23)cc1 (stereo not drawn) [Compound 250, N-(3-(4-amino-3-(4-((5-fluoro-2-methoxybenzamido)methyl)phenyl)-1H-pyrazolo[3,4-d]pyrimidin-1-yl)butan-2-yl)-N-methyl-1H-1,2,4-triazole-1-carboxamide] |  | 248, 249, 250, 253, 254, 256, 259, 260, 261, 264, 265, M^−1 · s^−1
6 |  |  |  | CC1CCCCN1C(=O)n1cncn1 (stereo not drawn) | <0.0005 | 
7 |  |  |  | CCN(CC)C(=O)n1cncn1 | <0.0005 | 
8 | > 1 | > 1 |  | COCC(CN(C)C(=O)n1cncn1)n1nc(-c2ccc(CNC(=O)c3cc(F)ccc3OC)cc2)c2c(N)ncnc21 (stereo not drawn) [Compound 261, N-(2-(4-amino-3-(4-((5-fluoro-2-methoxybenzamido)methyl)phenyl)-1H-pyrazolo[3,4-d]pyrimidin-1-yl)-3-methoxypropyl)-N-methyl-1H-1,2,4-triazole-1-carboxamide] |  | 248, 249, 250, 253, 254, 256, 259, 260, 261, 264, 265, M^−1 · s^−1
9 | ≤ 1 | ≤ 1 | over 50% | CN(C(=O)n1cncn1)C1CCC(n2nc(-c3ccc(Oc4ccccc4)cc3)c3c(N)ncnc32)CC1 (stereo not drawn) [Compound 133, N-(4-(4-amino-3-(4-phenoxyphenyl)-1H-pyrazolo[3,4-d]pyrimidin-1-yl)cyclohexyl)-N-methyl-1H-1,2,4-triazole-1-carboxamide] |  | 
10 | > 1 | ≤ 1 |  | NC(=O)c1c(-c2ccc(Oc3ccccc3)cc2)nn2c1NCCC2[C@H]1CCCN1C(=O)n1cncn1 (stereo partly drawn) [Compound 140, 7-((R)-1-(1H-1,2,4-triazole-1-carbonyl)pyrrolidin-2-yl)-2-(4-phenoxyphenyl)-4,5,6,7-tetrahydropyrazolo[1,5-a] pyrimidine-3-carboxamide] |  | 132, 134, 136, 137, 138, 140, 150, 152, 153, 154, 155, M^−1 · s^−1
11 | > 1 | > 1 |  | COc1ccc(F)cc1C(=O)NCc1ccc(-c2nn(C[C@H](C(C)C)N(C)C(=O)n3cncn3)c3ncnc(N)c23)cc1 [Compound 259, (S)-N-(1-(4-amino-3-(4-((5-fluoro-2-methoxybenzamido)methyl)phenyl)-1H-pyrazolo[3,4-d]pyrimidin-1-yl)-3-methylbutan-2-yl)-N-methyl-1H-1,2,4-triazole-1-carboxamide] |  | 248, 249, 250, 253, 254, 256, 259, 260, 261, 264, 265, M^−1 · s^−1
12 |  |  |  | CCN(C(=O)n1cncn1)C1CC1 | <0.0005 | 
